#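 48-hour exposure; five concentrations; linearly interpolated endpoints. TGI: concentration producing complete growth inhibition.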
# Columns and labels:
# Assay in all cases: NCI anticancer screen, dose series, 48 h
# HOP-62 NSCLC = test system: HOP-62 NSCLC
# OVCAR-4 ovarian = test system: OVCAR-4 ovarian
# U251 CNS = test system: U251 CNS
# HOP-92 NSCLC = test system: HOP-92 NSCLC
# 786-0 renal = test system: 786-0 renal
# NCI-H226 lung = test system: NCI-H226 lung
# MOLT-4 leukemia = test system: MOLT-4 leukemia
# SF-295 CNS = test system: SF-295 CNS
# SK-OV-3 ovarian = test system: SK-OV-3 ovarian
# HCT-15 colon = test system: HCT-15 colon
# HS 578T breast = test system: HS 578T breast
SMILES,TGI (HOP-62 NSCLC),TGI (OVCAR-4 ovarian),TGI (U251 CNS),TGI (HOP-92 NSCLC),TGI (786-0 renal),TGI (NCI-H226 lung),TGI (MOLT-4 leukemia),TGI (SF-295 CNS),TGI (SK-OV-3 ovarian),TGI (HCT-15 colon),TGI (HS 578T breast)
COC(=O)/C=C\n1c(C)cc(=O)[nH]c1=O,> 100 µM,> 100 µM,> 100 µM,> 100 µM,> 100 µM,> 100 µM,> 100 µM,> 100 µM,> 100 µM,> 100 µM,> 100 µM
Cc1c(Cl)nc(Nc2nc3ccccc3[nH]2)nc1Cl,–,76.5 µM,> 100 µM,18.6 µM,> 100 µM,> 100 µM,> 100 µM,> 100 µM,> 100 µM,> 100 µM,82 µM
CC(O)c1cc2c(s1)C(=O)c1sccc1C2=O (configuration not stated),0.406 µM,0.344 µM,–,2.06 µM,0.538 µM,0.428 µM,> 100 µM,0.191 µM,4.18 µM,0.178 µM,> 100 µM
COc1ccc2nc3ccc(OC)cc3c(SCCO)c2c1,> 100 µM,> 100 µM,> 100 µM,> 100 µM,> 60 µM,> 100 µM,> 30.3 µM,> 100 µM,> 100 µM,> 100 µM,> 100 µM
O=C(/C=C/c1ccc(O)c(O)c1)OCCCc1ccccc1,26.6 µM,20.7 µM,23.4 µM,30.6 µM,18.1 µM,34.6 µM,36.4 µM,38.9 µM,58.9 µM,26.4 µM,74.5 µM
COC(=O)/C(=C\Nc1cccc(C)n1)S(=O)(=O)c1ccc(C)cc1,> 100 µM,> 100 µM,> 100 µM,> 100 µM,> 100 µM,> 100 µM,70.4 µM,> 100 µM,> 100 µM,> 100 µM,> 100 µM
CCC(CON(C)c1ccccc1)(SC)SC,> 100 µM,> 100 µM,> 100 µM,> 100 µM,> 100 µM,> 100 µM,> 100 µM,> 100 µM,> 100 µM,> 100 µM,> 100 µM
CC(=O)OCCCOCn1c(Cc2ccccc2)c(C)c(=O)[nH]c1=O,> 100 µM,> 100 µM,> 100 µM,> 100 µM,> 100 µM,> 100 µM,> 100 µM,> 100 µM,> 100 µM,> 100 µM,> 100 µM
Nn1c(COc2cccc(OCc3n[nH]c(=S)n3N)c2)n[nH]c1=S,> 100 µM,> 100 µM,> 100 µM,> 100 µM,> 100 µM,> 100 µM,21.7 µM,> 100 µM,> 100 µM,> 100 µM,> 100 µM
COC(=O)[C@]1(c2cc3ccccc3n2S(=O)(=O)c2ccccc2)CC2CN(C(C)=O)C1CC2=O (some centres not stated),16.4 µM,10.7 µM,3.08 µM,16.5 µM,2.97 µM,10.4 µM,4.85 µM,30.1 µM,21.7 µM,9.06 µM,> 43.8 µM
CCN(CC)CC1CCCCN1CC(=O)N1c2ccccc2NC(=O)CC1C (configuration not stated),> 100 µM,> 100 µM,> 100 µM,> 100 µM,> 100 µM,> 100 µM,> 100 µM,> 100 µM,> 100 µM,> 100 µM,> 100 µM
CCOC(=O)C1=CNC(C(=O)OCC)C1c1cccn1-c1ccc(Cl)cc1[N+](=O)[O-] (configuration not stated),53.6 µM,98.3 µM,41.1 µM,51.7 µM,45.9 µM,50 µM,59.5 µM,31.3 µM,> 100 µM,46.6 µM,50.5 µM
OC(c1cc2ccccc2o1)c1cc2ccccc2s1 (configuration not stated),> 10 µM,> 10 µM,> 10 µM,> 10 µM,> 10 µM,> 10 µM,> 10 µM,> 10 µM,> 10 µM,> 10 µM,> 10 µM
COC(=O)C1Cc2c(OC)ccc(OC)c2CC(C(=O)OC)C1=O (configuration not stated),> 100 µM,> 100 µM,> 100 µM,> 100 µM,> 100 µM,> 100 µM,> 100 µM,> 100 µM,> 100 µM,> 100 µM,> 100 µM
Cc1nc(C)c(C(=O)NNC(N)=S)cc1C(=O)NNC(N)=S,> 100 µM,> 100 µM,> 100 µM,> 100 µM,> 100 µM,> 100 µM,> 100 µM,> 100 µM,> 100 µM,> 100 µM,> 100 µM
CC1(C)N=C(C(N)=O)c2ncn(N)c2N1,> 100 µM,> 100 µM,> 100 µM,> 100 µM,> 100 µM,> 100 µM,–,> 100 µM,> 100 µM,> 100 µM,> 100 µM
CC[C@]12C=CCN3CC[C@@]4(c5cc(Br)c(OC)cc5N(C)[C@H]4[C@@](O)(C(=O)NN)[C@@H]1O)[C@@H]32,> 100 µM,> 100 µM,> 100 µM,> 100 µM,> 100 µM,> 100 µM,> 100 µM,> 100 µM,> 100 µM,> 100 µM,> 100 µM
S=C(NC1=NCC(CN2CCN(c3ccccc3)CC2)O1)Nc1ccccc1 (configuration not stated),> 100 µM,> 100 µM,> 100 µM,> 100 µM,> 100 µM,> 100 µM,> 100 µM,> 100 µM,> 100 µM,> 100 µM,> 100 µM
COC(=O)c1c(O)ccc2c1c1c(n2Cc2ccccc2Cl)C(=O)c2ccccc2C1=O,47.9 µM,12.6 µM,30.2 µM,29.8 µM,36.4 µM,36.6 µM,56.1 µM,31.6 µM,27.2 µM,31.8 µM,59 µM

SMILES,TGI (HOP-62 NSCLC),TGI (OVCAR-4 ovarian),TGI (U251 CNS),TGI (HOP-92 NSCLC),TGI (786-0 renal),TGI (NCI-H226 lung),TGI (MOLT-4 leukemia),TGI (SF-295 CNS),TGI (SK-OV-3 ovarian),TGI (HCT-15 colon),TGI (HS 578T breast)
C[C@]12CC[C@H]3[C@@H](CC=C4C[C@@H](N5CCCC5)CC[C@@]43C)[C@@H]1C[C@H](N1CCOCC1)[C@@H]2O,> 100 µM,> 100 µM,> 100 µM,> 100 µM,> 100 µM,> 100 µM,> 100 µM,> 100 µM,> 100 µM,> 100 µM,> 100 µM
CC(C)/C(Cl)=N\OC(=O)Nc1ccccc1F,> 55.6 µM,31.7 µM,31.1 µM,4.06 µM,29.9 µM,28.8 µM,12.4 µM,30.3 µM,33.4 µM,31.3 µM,> 69.3 µM
O=C1NC(SSC2=NNC3(C(=O)N2)c2ccccc2-c2ccccc23)=NNC12c1ccccc1-c1ccccc12,> 10 µM,> 10 µM,> 10 µM,> 10 µM,> 10 µM,> 10 µM,> 10 µM,> 10 µM,> 10 µM,> 10 µM,> 10 µM
CC[C@H](O)[C@H](C)C=C1SCCCS1,> 100 µM,> 100 µM,> 100 µM,> 100 µM,> 100 µM,> 100 µM,> 100 µM,> 100 µM,> 100 µM,> 100 µM,> 100 µM
COc1ccc2c(CCN)c(C(=O)O)[nH]c2c1,> 100 µM,> 100 µM,> 100 µM,> 100 µM,> 100 µM,> 100 µM,> 100 µM,> 100 µM,> 100 µM,> 100 µM,> 100 µM
O=C(c1ccccc1)N1CCN(C(=S)N(C(=O)c2ccccc2)c2ccccc2)C1=S,26.3 µM,10.9 µM,22.6 µM,20 µM,5.31 µM,32 µM,–,31.6 µM,30.2 µM,7.76 µM,> 27.1 µM
CN(CCn1cnc2c1c(=O)n(C)c(=O)n2C)C1CCCCC1,> 100 µM,> 100 µM,> 100 µM,> 100 µM,> 100 µM,> 100 µM,> 100 µM,> 100 µM,> 100 µM,> 100 µM,> 100 µM
CCCCC(=O)NS(=NC(=O)c1ccccc1)C(Cl)(Cl)Cl (configuration not stated),> 100 µM,> 100 µM,> 100 µM,> 100 µM,> 100 µM,> 100 µM,> 100 µM,> 100 µM,> 100 µM,> 100 µM,> 100 µM
COC(=O)CCC(=O)NC1=C(Nc2ccc(OC)cc2)C(=O)c2ccccc2C1=O,33.2 µM,24.7 µM,57.5 µM,27 µM,76.2 µM,35.3 µM,65.8 µM,25.8 µM,88.1 µM,21.4 µM,72.6 µM
COC(=O)CCC(=O)NC1=C(NCc2ccccc2)C(=O)c2ccccc2C1=O,–,49.8 µM,94.8 µM,48.2 µM,> 100 µM,> 100 µM,> 100 µM,> 100 µM,> 100 µM,51.5 µM,> 100 µM
NC(N)=N/N=C/c1nc2n(c1[N+](=O)[O-])CCS2,> 100 µM,41 µM,89.3 µM,> 100 µM,> 100 µM,> 100 µM,63.7 µM,98.4 µM,> 100 µM,> 100 µM,> 100 µM
CN(C)CCNC(=O)c1cccc2c(NCCN(C)C)c3ccccc3nc12,13.2 µM,8.68 µM,8.72 µM,17.8 µM,6.65 µM,3.66 µM,6.29 µM,17.6 µM,40.2 µM,24.7 µM,8.57 µM
CCCN(CCCC(NC(C)=O)C(=O)NCc1ccccc1)C(=O)N(CCCl)N=O (configuration not stated),19.8 µM,> 85 µM,20.1 µM,46.6 µM,19.1 µM,40.1 µM,28 µM,43.3 µM,63.1 µM,42.5 µM,> 100 µM
COc1ccc2nc3c([N+](=O)[O-])ccc4c3c(c2c1)NCCN4CCO,2.28 µM,2.39 µM,1.85 µM,1.59 µM,1.46 µM,0.958 µM,0.806 µM,1.71 µM,3.58 µM,2.68 µM,2.79 µM
COC(=O)NCCc1[nH]nc2c1C(=O)C=C(N1CCOCC1)C2=O,> 100 µM,> 100 µM,> 100 µM,> 100 µM,> 100 µM,> 100 µM,> 100 µM,> 100 µM,> 100 µM,> 100 µM,> 100 µM
O=[N+]([O-])C1CC/C(=N/O)c2nonc21 (configuration not stated),> 10 µM,> 10 µM,> 10 µM,> 10 µM,> 10 µM,> 10 µM,> 10 µM,> 10 µM,–,> 10 µM,> 10 µM
C[C@H](CCC(=O)NCCS(=O)(=O)O)[C@H]1CC[C@H]2[C@@H]3CC[C@@H]4C[C@H](O)CC[C@]4(C)[C@H]3CC[C@]12C,> 100 µM,> 100 µM,> 100 µM,> 100 µM,> 100 µM,> 100 µM,> 100 µM,> 100 µM,> 100 µM,> 100 µM,> 100 µM
CCOC(=O)c1ccc(Nc2c3c(nc4ccccc24)CCCC3)cc1,> 83.9 µM,> 100 µM,> 100 µM,> 72.6 µM,> 100 µM,> 100 µM,> 100 µM,> 100 µM,> 100 µM,> 100 µM,> 100 µM
COC(=O)C(Cc1c(C2Nc3ccccc3C2CC(NC(=O)CNC(C)=O)C(=O)OC)[nH]c2ccccc12)NC(=O)CNC(C)=O (configuration not stated),> 69.8 µM,> 100 µM,> 100 µM,> 100 µM,> 100 µM,> 100 µM,> 100 µM,> 100 µM,> 100 µM,> 100 µM,> 100 µM

# From PubChem BioAssay (NCI)
